Assay results taken from patent US20020132845A1, “Compositions and methods for the prevention and treatment of tissue ischemia” (priority 2000, published 2002).

System: transient focal cerebral ischemia induced by Middle Cerebral Artery Occlusion (MCAO)
Assay: Animal cerebral infarct assay: two-hour Middle Cerebral Artery Occlusion (MCAO) with reperfusion
Format: in vivo, rat
Conditions: intraventricular (i.c.v.), 0.0067 mg/kg to 0.67 mg/kg
From the text: This assay is used to assess the efficacy of the test agents in protecting the brain against necrosis following cerebral ischemia induced in rats. Middle Cerebral Artery Occlusion (MCAO) is a widely used technique to induce transient focal cerebral ischemia in animal models. […] Furthermore, this model accurately represents the involvement of middle cerebral artery (MCA), the most affected vessel in human stroke, and also allows reperfusion as it happens in humans. MCAO by a two-hour occlusion is used to produce the maximum size of cortical infarction without increased mortality at twenty-four hours. Male Wistar rats (Hadan, Ind.) weighing 300-350 g were allowed free access to water and commercial rodent diet under standard laboratory conditions. The room temperature was maintained at 20-23° C. and room illumination was on a 12/12-hour light/dark cycle. The rats were acclimatized to the laboratory environment 5 to 7 days prior to the study. Before surgery, the animals were fasted overnight, but had free access to water. The rats were anesthetized with 3.0% isoflurane (Aerrane, Front Dodge, Iowa) in […] and the animal's neck was shaved and sterilized before the operation. The animals were subjected to two hours MCAO using a modified intraluminal filament technique. A midline incision on the ventral part of the neck was made to expose external and internal carotid arteries. The right external and common carotid arteries were ligated by a suture (silk 5/0, Carlisle Laboratories, Farmers Branch, Tex.) and the right internal artery was temporarily ligated by a microvascular clip (Fine Science Tool Inc., Foster City, Calif.). A small incision was made in the common carotid artery and a nylon filament, its tip rounded by heating, prepared from a fishing line (Stren Fishing Lines, Wilmington, Del.) was inserted from the right common carotid artery. The filament was advanced into the internal carotid artery 18-20 mm from the point of bifurcation of internal and external arteries and a suture was tightly ligated around the filament. Two hours post occlusion, the animals were re-anesthetized to allow reperfusion for the remaining of the experiment by removal of the filament. The anesthetized animal were placed on a stereotaxic apparatus (Harvard Apparatus, S. Natick, Mass.). Anesthesia was maintained by inhalation of 3.0% isoflurane in […] throughout the entire procedure. The scalp was shaved and sterilized prior to surgery. A midline sagittal incision about 3 cm long was made slightly behind the eyes to expose the skull. The skull was scraped with a rounded end spatula to remove periosteal connective tissue. A bur hole was placed 1.5 mm lateral, 1 mm posterior to the left of the bregma to mark the left lateral ventricle. A brain infusion cannula (ALZET CO. Palo Alto, Calif.) was inserted 4 mm deep into the hole. The desired depth was adjusted by attaching spacers to the cannula. The cannula was attached to a 4-cm silastic catheter (Helix Medical Inc.) fixed in place with dental cement (Ketac-cement, Norristown, Pa.). The catheter was either attached to a primed osmotic pump placed subcutaneously between the shoulder blades for permanent infusion or to a syringe for a short infusion. Anesthesia was maintained by inhalation of 3.0% isoflurane in […] throughout the entire procedure. The exterior site of the right femoral vein was shaved and sterilized prior to surgery. A 3 cm incision was made in the right groin region and the femoral vein was isolated. A small incision was made on the femoral vein temporarily ligated with a microvascular clip to introduce and advance a polyethylene (PE-50) catheter (Becton. Dickinson and Co., Sparks, Md.). The catheter was secured in place with suture (silk 5/0, Carlisle Laboratories, Farmers Branch, Tex.). The other end of the catheter was attached to a syringe filled with the heparinized saline for the bolus injection. […]

bromo-quercetin
reductions of infarct volumes: greater than 50%
